Calls of active or inactive are those of the source. The rule behind the calls is not given here. Residues, ends and D or L forms follow the SMILES beside them.
Experiments:
[1] = species on record: Mus musculus; experiment: Tested for apparent affinity on electrically stimulated mouse vas deferens; type: functional, organism-based
[2] = species on record: Mus musculus; experiment: Tested for maximal effect induced by agonist; type: functional
[3] = species on record: Mus musculus; experiment: Tested for apparent affinity on electrically stimulated mouse vas deferens at 10 uM; Inactive; type: functional, organism-based
[4] = species on record: Mus musculus; experiment: Tested for antagonistic properties by using NC(1-13)-NH2; In active at 10 uM; type: functional, organism-based
[5] = species on record: Mus musculus; experiment: Tested for maximal effect induced by agonist at 10 uM; Inactive; type: functional, organism-based
[6] = species on record: Mus musculus; experiment: Tested for maximal effect induced by agonist at 10 uM; Slight effect was detected; type: functional, organism-based
[7] = species on record: Mus musculus; experiment: Tested for apparent affinity on electrically stimulated mouse vas deferens at 10 uM; Slight effect was detected; type: functional, organism-based
[8] = species on record: Mus musculus; experiment: Tested for antagonistic properties by using NC(1-13)-NH2 as agonist; Inactive at 10 uM; type: functional, organism-based
[9] = species on record: Mus musculus; experiment: Tested for maximal effect induced by agonist at 10 uM; In active; type: functional, organism-based
[10] = species on record: Mus musculus; experiment: Tested for apparent affinity on electrically stimulated mouse vas deferens at 10 uM; In active; type: functional, organism-based

| Molecule | EC50 [1] [nM] | Log EC50 [3] | Emax [2] [%] | Activity [4] | Emax [5] | other results |
| --- | --- | --- | --- | --- | --- | --- |
| C[C@H](NC(=O)CNC(=O)[C@@H](NC(=O)[C@H](Cc1ccccc1)NC(=O)CNC(=O)CNC(=O)[C@@H](N)Cc1ccccc1)[C@@H](C)O)C(=O)N[C@@H](CCCN=C(N)N)C(=O)N[C@@H](CCCCN)C(=O)N[C@@H](CO)C(=O)N[C@@H](C)C(=O)N[C@@H](CCCN=C(N)N)C(=O)N[C@@H](CCCCN)C(=O)O | 2240 |  | -73 |  |  |  |
| C[C@H](NC(=O)CNC(=O)[C@@H](NC(=O)[C@@H](Cc1ccccc1)NC(=O)CNC(=O)CNC(=O)[C@@H](N)Cc1ccccc1)[C@@H](C)O)C(=O)N[C@@H](CCCN=C(N)N)C(=O)N[C@@H](CCCCN)C(=O)N[C@@H](CO)C(=O)N[C@@H](C)C(=O)N[C@@H](CCCN=C(N)N)C(=O)N[C@@H](CCCCN)C(N)=O |  |  |  | inactive |  | Emax [6]: crc incom; Log EC50 [7]: crc incom |
| C[C@H](NC(=O)CNC(=O)[C@@H](NC(=O)[C@H](Cc1ccccc1)NC(=O)CNC(=O)CNC(=O)[C@H](N)Cc1ccccc1)[C@@H](C)O)C(=O)N[C@@H](CCCN=C(N)N)C(=O)N[C@@H](CCCCN)C(=O)N[C@@H](CO)C(=O)N[C@@H](C)C(=O)N[C@@H](CCCN=C(N)N)C(=O)N[C@@H](CCCCN)C(N)=O |  |  |  | inactive |  | Emax [6]: crc incom; Log EC50 [7]: crc incom |
| NC(=O)[C@H](Cc1ccccc1)NC(=O)CNC(=O)CNC(=O)[C@@H](N)Cc1ccccc1 (H-FGGF-NH2) |  | inactive |  |  | inactive | Activity [8]: inactive |
| CC(C)C[C@H](NC(=O)[C@H](CCCCN)NC(=O)[C@H](CCCNC(=N)N)NC(=O)[C@H](C)NC(=O)[C@H](CO)NC(=O)[C@H](CCCCN)NC(=O)[C@H](CCCNC(=N)N)NC(=O)[C@H](C)NC(=O)CNC(=O)[C@@H](NC(=O)[C@H](Cc1ccccc1)NC(=O)CNC(=O)CNC(=O)[C@@H](N)Cc1ccccc1)[C@@H](C)O)C(=O)N[C@@H](C)C(=O)N[C@@H](CC(N)=O)C(=O)N[C@@H](CCC(N)=O)C(=O)O [NOCICEPTIN] | 14.5 |  | -83 |  |  |  |
| H-FAAFTGARKSARK-NH2 |  | inactive |  | inactive |  | Emax [9]: inactive |
| H-FGFTGARKSARK-NH2 |  |  |  | inactive |  | Log EC50 [10]: inactive; Emax [9]: inactive |
| H-FGGFTGAAASARK-NH2 |  |  |  | inactive |  | Emax [6]: crc incom; Log EC50 [7]: crc incom |
| H-FGGFTGARKSA-NH2 |  |  |  | inactive |  | Emax [6]: crc incom; Log EC50 [7]: crc incom |
| H-FGGLTGARKSARK-NH2 |  | inactive |  | inactive | inactive |  |

More lines, main results first:

| EC50 [1] [nM] | Log EC50 [3] | Molecule | Emax [2] [%] | Activity [4] | Emax [5] | other results |
| --- | --- | --- | --- | --- | --- | --- |
| 17.8 |  | C[C@H](NC(=O)CNC(=O)[C@@H](NC(=O)[C@H](Cc1ccccc1)NC(=O)CNC(=O)CNC(=O)[C@@H](N)Cc1ccccc1)[C@@H](C)O)C(=O)N[C@@H](CCCNC(=N)N)C(=O)N[C@@H](CCCCN)C(=O)N[C@@H](CO)C(=O)N[C@@H](C)C(=O)N[C@@H](CCCNC(=N)N)C(=O)N[C@@H](CCCCN)C(N)=O | -84 |  |  |  |
| 1510 |  | CC(=O)N[C@@H](Cc1ccccc1)C(=O)NCC(=O)NCC(=O)N[C@@H](Cc1ccccc1)C(=O)N[C@H](C(=O)NCC(=O)N[C@@H](C)C(=O)N[C@@H](CCCN=C(N)N)C(=O)N[C@@H](CCCCN)C(=O)N[C@@H](CO)C(=O)N[C@@H](C)C(=O)N[C@@H](CCCN=C(N)N)C(=O)N[C@@H](CCCCN)C(N)=O)[C@@H](C)O | -79 |  |  |  |
|  | inactive | C=CCN(CC=C)[C@@H](Cc1ccccc1)C(=O)NCC(=O)NCC(=O)N[C@@H](Cc1ccccc1)C(=O)N[C@H](C(=O)NCC(=O)N[C@@H](C)C(=O)N[C@@H](CCCN=C(N)N)C(=O)N[C@@H](CCCCN)C(=O)N[C@@H](CO)C(=O)N[C@@H](C)C(=O)N[C@@H](CCCN=C(N)N)C(=O)N[C@@H](CCCCN)C(N)=O)[C@@H](C)O |  | inactive | inactive |  |
|  | inactive | C[C@H](NC(=O)CNC(=O)[C@@H](NC(=O)[C@H](Cc1ccccc1)NC(=O)CNC(=O)CNC(=O)[C@@H](N)Cc1ccccc1)[C@@H](C)O)C(=O)N[C@@H](CCCN=C(N)N)C(=O)N[C@@H](CCCCN)C(=O)N[C@@H](CO)C(=O)N[C@@H](C)C(=O)N[C@@H](CCCN=C(N)N)C(=O)O |  | inactive | inactive |  |
|  | inactive | H-FGGFT-NH2 |  | inactive | inactive |  |
|  | inactive | H-FGGFTGARK-NH2 |  | inactive | inactive |  |
| 871 |  | H-FGGFTGARKSAR-NH2 | -79 |  |  |  |
| 28.2 |  | H-LGGFTGARKSARK-NH2 | -80 |  |  |  |
